Assays:
rats = settings: ref Richard et al., 2009, Fernstrom, 2012; cited from earlier work
Description: (§1) Also, the indole ring of tryptophan prefers to interact with a […], and the indole NH being close to a lipid carbonyl ester leads W-containing peptides to be powerful and safe promising antibiotic candidates with different beneficial effects ([Dixon et al., 2003]; ...

humans = settings: corresponding to the rat value, ref Richard et al., 2009, Fernstrom, 2012; cited from earlier work
Description: as §1

E. coli ATCC 25922 [1] = test: Mouse infection model, bacterial load; type: in vivo; settings: ICR mice, i.p. E. coli 1 × 10^8 CFU/ml, 5 mg/kg i.p. 1 h later, 6 h, P < 0.05
Experimental: Female Institute for Cancer Research (ICR) mice (SPF, 20–25 g) were purchased from WeiTonglihua, Co., Ltd. (Beijing, China). Mice were fed and acclimatized as described ([Chou et al., 2019]). E. coli ATCC 25922 was adopted as the pathogenic bacterium for the infection model in this study. In this mouse model, the antimicrobial activity of S7 was determined by colony counting of blood and various organs. Briefly, the mice were divided into four groups (six groups for anti-inflammatory assay) and received intraperitoneal injections of 100 μl E. coli (1 × 10^8 CFU/ml) cells in 0.9% NaCl or only 100 μl 0.9% NaCl as control. 1 h later, 100 μl S7 (5 mg/kg), 100 μl 0.9% NaCl, 100 μl gentamicin (5 mg/kg) or 100 μl 0.9% NaCl, was intraperitoneally injected to the treated or control groups, respectively. And the mice were sacrificed via excessive anesthesia after 6 h post-challenge. The anti-inflammatory effect of S7 was measured by testing the levels of TNF-α, IL-6, and IL-1β in serum using a TNF-α enzyme-linked immunosorbent assay (ELISA) kit, an IL-6 ELISA kit and an IL-1β ELISA kit according to the manufacturer’s instructions (Shanghai Jin Ma Laboratory Equipment, Co., Ltd.).

E. coli ATCC 25922 [2] = test: Drug resistance experiment (sequential passaging); type: cell-based, Escherichia coli; settings: E. coli 25922, passaged at sub-MIC for 30 days
Experimental: Resistance development of E. coli ATCC 25922 against antibiotics was investigated using a sequential passaging method. Briefly, in the first generation, the MIC value was determined as described previously. After a 24 h incubation, bacterial cells growing in a well with a half-MIC level were harvested and diluted to 0.05 at OD600, followed by a 1:10 dilution in fresh MHB. The inoculum was subjected to subsequent passage MIC testing, and the process was repeated for 30 days. The fold change in MIC was plotted against the number of passages.

N[C@@H](Cc1c[nH]c2ccccc12)C(=O)O [Tryptophan (W), Tryptophan]
median lethal dose (LD50) (rats): 1600 mg/kg | median lethal dose (LD50), corresponding dose in humans (humans): ~1400 mg/kg

CNC(C)C1CCC(N)C(OC2C(N)CC(N)C(OC3OCC(C)(O)C(NC)C3O)C2O)O1 (stereo not shown) [gentamicin]
number of colonies in blood, kidney and liver versus E. coli group (E. coli ATCC 25922 [1]): significantly decreased | resistance development (change in MIC on serial passaging) (E. coli ATCC 25922 [2]): induced rapid resistance acquisition

Source: publication PMC7160233, “Peptides With Triplet-Tryptophan-Pivot Promoted Pathogenic Bacteria Membrane Defects” (Frontiers in Microbiology, 2020)
